These are literature values, as cited in patent US11413265B2, “Formulations and compositions of Cabazitaxel” (Zhuhai Beihai Biotech Co., Ltd., priority 2018, dated 2022).

One data set deals with human serum albumin (Homo sapiens, UniProt P02768). The settings on record: in vitro.
Another data set has as its system human serum proteins. The settings on record: in vitro.

SMILES strings stand for the structures.

Sequence of human serum albumin (P02768 25-609): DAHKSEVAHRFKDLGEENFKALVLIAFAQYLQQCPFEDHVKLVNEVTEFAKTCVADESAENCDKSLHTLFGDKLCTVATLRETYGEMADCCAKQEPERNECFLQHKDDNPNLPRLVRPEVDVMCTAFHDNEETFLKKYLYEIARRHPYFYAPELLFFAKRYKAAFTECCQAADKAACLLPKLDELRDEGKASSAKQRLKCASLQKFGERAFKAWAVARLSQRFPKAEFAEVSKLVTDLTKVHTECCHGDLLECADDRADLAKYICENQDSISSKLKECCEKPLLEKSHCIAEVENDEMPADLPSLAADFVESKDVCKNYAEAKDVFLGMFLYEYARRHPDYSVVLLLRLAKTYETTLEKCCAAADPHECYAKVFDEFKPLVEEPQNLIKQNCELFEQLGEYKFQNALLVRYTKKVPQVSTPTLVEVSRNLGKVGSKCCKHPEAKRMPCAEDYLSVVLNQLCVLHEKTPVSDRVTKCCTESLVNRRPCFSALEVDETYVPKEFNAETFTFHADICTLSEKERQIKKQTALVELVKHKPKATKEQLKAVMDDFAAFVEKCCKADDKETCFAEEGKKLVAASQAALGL

As to `CO[C@H]1C(=O)[C@]2(C)[C@@H](OC)C[C@H]3OC[C@@]3(OC(C)=O)[C@H]2[C@H](OC(=O)c2ccccc2)[C@]2(O)C[C@H](OC(=O)[C@H](O)[C@@H](NC(=O)OC(C)(C)C)c3ccccc3)C(C)=C1C2(C)C` [Cabazitaxel, cabazitaxel], at human serum albumin, the “bound to human serum albumin” value is reported as 82%. In addition, the solubility in alcohol result (alcohol) is on record as “soluble”. In addition, under “water”, the solubility in water result is listed as “practically insoluble”. Also, the “concentration up to which binding to human serum proteins was not saturable” value in the data set with human serum proteins is reported as > 50,000 ng/mL.
